Test results taken from ChEMBL document CHEMBL5325450, “Bisabolane-Type Sesquiterpenoids with a Tetrahydrofuran or Tetrahydropyran Ring from Vernonia solanifolia” (J Nat Prod, 2023).
Calls of active or inactive are those of the source. The calls are words filed in the database; no cut-off is given here.

What was measured:
[1] = test system: RAW264.7; experiment: Cytotoxicity against mouse RAW264.7 cells assessed as reduction in cell viability upto 80 uM measured after 24 hrs by MTT assay; type: toxicity, cell-based; settings: raw264.7, 24 h
[2] = test system: RAW264.7; experiment: Anti-inflammatory activity against mouse RAW264.7 cells assessed as inhibition of LPS-induced NO production at 80 uM pre-incubated for 1 hr followed by compound addition and measured after 18 hrs by Griess reagent based analysis; type: functional, cell-based; settings: time 19.0 hrs
[3] = test system: RAW264.7; experiment: Anti-inflammatory activity against mouse RAW264.7 cells assessed as reduction in LPS-induced NO production pre-incubated for 1 hr followed by compound addition and measured after 18 hrs by Griess reagent based analysis; type: functional, cell-based; settings: dose 5-80 µM, time 19.0 hrs
[4] = test system: THP-1; experiment: Anti-inflammatory activity against LPS-induced human THP-1 cells assessed as reduction in iNOS protein expression by Western blot analysis; type: functional, cell-based; settings: dose 20-80 µM
[5] = biological target: T1, Nuclear factor NF-kappa-B complex (Homo sapiens) (UniProt Q00653+P19838+Q04206); experiment: Inhibition of NFkappaB signaling pathway in LPS-induced human THP-1 cells assessed as reduction in IKKalpha/beta phosphorylation by Western blot analysis; type: cell-based
[6] = biological target: T1, Nuclear factor NF-kappa-B complex (Homo sapiens); experiment: Inhibition of NFkappaB signaling pathway in LPS-induced human THP-1 cells assessed as reduction in IkappaBalpha phosphorylation by Western blot analysis; type: cell-based
[7] = biological target: T1, Nuclear factor NF-kappa-B complex (Homo sapiens); experiment: Inhibition of NFkappaB signaling pathway in LPS-induced human THP-1 cells assessed as reduction in p65 phosphorylation by Western blot analysis; type: cell-based

T1 sequence (P19838 whole entry, looked up): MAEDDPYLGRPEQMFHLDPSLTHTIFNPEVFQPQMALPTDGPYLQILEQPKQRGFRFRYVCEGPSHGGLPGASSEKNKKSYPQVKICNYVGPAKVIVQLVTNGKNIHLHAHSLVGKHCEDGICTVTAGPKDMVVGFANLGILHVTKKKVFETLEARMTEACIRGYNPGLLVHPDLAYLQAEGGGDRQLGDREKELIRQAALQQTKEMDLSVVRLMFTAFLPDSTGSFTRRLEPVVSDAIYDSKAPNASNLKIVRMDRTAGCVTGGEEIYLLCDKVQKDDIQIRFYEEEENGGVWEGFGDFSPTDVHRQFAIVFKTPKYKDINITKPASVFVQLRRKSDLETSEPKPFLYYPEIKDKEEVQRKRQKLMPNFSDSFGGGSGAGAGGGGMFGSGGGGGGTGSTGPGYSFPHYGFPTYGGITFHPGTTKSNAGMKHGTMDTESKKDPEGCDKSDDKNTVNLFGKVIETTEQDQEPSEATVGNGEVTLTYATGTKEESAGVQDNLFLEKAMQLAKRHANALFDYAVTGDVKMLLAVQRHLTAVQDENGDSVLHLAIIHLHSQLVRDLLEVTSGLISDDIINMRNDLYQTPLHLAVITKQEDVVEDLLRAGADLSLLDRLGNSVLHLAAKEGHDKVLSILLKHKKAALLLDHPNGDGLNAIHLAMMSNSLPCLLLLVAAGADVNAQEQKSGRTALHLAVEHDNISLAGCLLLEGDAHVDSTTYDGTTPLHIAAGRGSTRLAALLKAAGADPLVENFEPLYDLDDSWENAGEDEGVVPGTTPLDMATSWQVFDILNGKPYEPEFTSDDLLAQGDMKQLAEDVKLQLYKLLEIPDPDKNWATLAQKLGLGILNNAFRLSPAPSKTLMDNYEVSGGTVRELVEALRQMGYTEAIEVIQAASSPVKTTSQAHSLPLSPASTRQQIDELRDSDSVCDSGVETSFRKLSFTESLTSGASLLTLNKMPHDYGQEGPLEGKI
T1 sequence (Q00653 whole entry, looked up): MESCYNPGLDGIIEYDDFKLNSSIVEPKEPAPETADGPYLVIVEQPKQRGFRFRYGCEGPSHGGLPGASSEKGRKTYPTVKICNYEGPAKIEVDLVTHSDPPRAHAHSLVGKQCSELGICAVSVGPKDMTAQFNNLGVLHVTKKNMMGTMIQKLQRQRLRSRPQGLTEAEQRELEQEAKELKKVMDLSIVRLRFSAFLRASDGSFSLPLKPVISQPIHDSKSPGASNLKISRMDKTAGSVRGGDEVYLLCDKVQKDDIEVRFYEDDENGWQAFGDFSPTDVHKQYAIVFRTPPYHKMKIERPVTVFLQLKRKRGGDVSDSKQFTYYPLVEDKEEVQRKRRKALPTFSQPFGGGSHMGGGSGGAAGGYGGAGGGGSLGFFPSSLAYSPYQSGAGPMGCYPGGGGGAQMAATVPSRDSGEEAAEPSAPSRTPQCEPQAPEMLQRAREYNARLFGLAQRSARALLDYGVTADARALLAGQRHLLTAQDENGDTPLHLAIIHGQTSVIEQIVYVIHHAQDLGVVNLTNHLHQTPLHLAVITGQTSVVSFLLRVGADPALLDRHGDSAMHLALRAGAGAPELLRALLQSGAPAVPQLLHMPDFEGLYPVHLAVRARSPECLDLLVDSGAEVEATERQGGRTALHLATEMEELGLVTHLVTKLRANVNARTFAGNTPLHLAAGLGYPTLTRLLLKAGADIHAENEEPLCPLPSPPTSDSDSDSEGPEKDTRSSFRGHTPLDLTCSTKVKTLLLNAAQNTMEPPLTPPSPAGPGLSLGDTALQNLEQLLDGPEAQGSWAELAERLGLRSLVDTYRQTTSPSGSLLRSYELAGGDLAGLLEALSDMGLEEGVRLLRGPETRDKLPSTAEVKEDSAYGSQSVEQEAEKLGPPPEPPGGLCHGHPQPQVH
T1 sequence (Q04206 whole entry, looked up): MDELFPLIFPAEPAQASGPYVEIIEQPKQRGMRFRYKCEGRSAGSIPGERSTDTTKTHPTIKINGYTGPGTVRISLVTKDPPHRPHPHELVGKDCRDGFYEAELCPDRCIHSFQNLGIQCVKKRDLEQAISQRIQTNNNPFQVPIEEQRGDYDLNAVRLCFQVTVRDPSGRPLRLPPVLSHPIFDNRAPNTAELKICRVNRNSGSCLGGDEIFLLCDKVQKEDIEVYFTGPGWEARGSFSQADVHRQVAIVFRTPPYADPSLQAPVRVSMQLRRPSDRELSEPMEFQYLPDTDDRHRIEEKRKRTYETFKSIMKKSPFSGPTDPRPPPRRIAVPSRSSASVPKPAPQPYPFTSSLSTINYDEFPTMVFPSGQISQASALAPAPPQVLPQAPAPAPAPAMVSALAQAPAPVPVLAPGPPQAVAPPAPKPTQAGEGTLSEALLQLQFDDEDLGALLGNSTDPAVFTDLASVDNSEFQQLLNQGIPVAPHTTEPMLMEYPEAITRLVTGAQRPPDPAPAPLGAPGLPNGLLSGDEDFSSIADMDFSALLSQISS

## C[C@](O)(CO)[C@@H]1CC[C@@](C)([C@@H]2CC=C(C(=O)O)CC2)O1
[1]
  Activity: Non-Toxic
[2]
  Activity: Active
[3]
  Activity: Dose-Dependent Effect
[4]
  Activity: Dose-Dependent Effect
[5]
  inhibition: Active
[6]
  inhibition: Active
[7]
  inhibition: Active
